For data set [1], the system named is PC-3 human prostatic adenocarcinoma xenograft in NOD-SCID mice. Put plainly: In vivo tumour growth inhibition, subcutaneous PC-3 xenograft. Also on record: species or system mouse. Conditions: free drug 1 mg/kg, two treatments, n = 8. The procedure:
The testing of the antitumour conjugates was carried out in a murine xenograft model. It was established by inoculating subcutaneously 100 µL of cell suspension of PC-3 prostate cancer cells with a concentration of 2 × 10^7 cells/mL.
Once the tumour volume reached 60 mm^3, mice were randomised and assigned to different groups for each treatment, respectively 0.9% saline as control, free daunorubicin, L5, and L6. Each group consisted of eight mice. Peptide–drug conjugates were injected intraperitoneally every 5th day, five times in total (daunorubicin dosage of 10 mg/kg for each treatment). In the case of free daunorubicin, two treatments were administered at the same time points as the first two treatments with conjugates, with a dosage of 1 mg/kg, the maximum tolerated dose (MTD). Weight and tumour size of mice were monitored throughout the whole experiment, two times per week. On day 33, mice were euthanized, and primary tumour, heart, lung, liver and spleen were harvested and stored in 4% formalin (Molar Chemicals, Halásztelek, Hungary). After 2–3 days of incubation in formalin, tissue samples were examined macroscopically. Organs and primary tumours from the different treatment groups were weighed and inspected under a stereomicroscope to see any occurrent changes in morphology compared to the controls.

Data set [2] relates to PC-3 human prostate adenocarcinoma cells. Description: MTT assay, in vitro cytostatic effect. The class given is cell-based. Particulars: Homo sapiens, 24 h treatment at 3.125–25 µM, then cultured up to 72 h, mean ± SD, n = 2 independent experiments with four parallels. The procedure: (§1) Cells were distributed into 96-well tissue culture plates with an initial cell number of 5.0 × 10^3 per well. After 24 h incubation at 37 °C, the cells were treated with the compounds in 200 µL final volume containing 1.0 v/v% DMSO and 10% H2O. […] After incubation, the cells were washed twice with a serum-free medium. To determine the in vitro cytostatic effect, the cells were further cultured up to 72 h in a 10% serum-containing medium. A solution of 3-(4,5-dimethylthiazol-2-yl)-2,5-diphenyltetrazolium bromide and MTT-solution, (45 µL, 2 mg/mL, final concentration: […]) were added to each well. The respiratory chain [67] and other electron transport systems reduce MTT, and thereby form non-water-soluble violet formazan crystals within the cell. […] After 3 h of incubation, the cells were centrifuged for 5 min at 1000 g and the supernatant was removed. The obtained formazan crystals were dissolved in DMSO (100 μL) and the optical density (OD) of the samples was measured at λ = 540 and 620 nm, respectively, using ELISA Reader (iEMS Reader, Labsystems, Finland). OD620 values were subtracted from OD540 values. The percentage of cytostasis was calculated by using the following equation:Cytostatic effect (%) = [1 − (ODtreated/ODcontrol)] × 100(1)
(§2) Values of ODtreated and ODcontrol correspond to the optical densities of the treated and the control cells, respectively. In each case, two independent experiments were carried out with four parallel measurements. The 50% inhibitory concentration (IC50) values were determined from the dose–response curves. The curves were defined using Microcal™ Origin 2018 software: cytostasis was plotted as a function of concentration, fitted to a sigmoidal curve, and based on this curve, the half-maximal inhibitory concentration (IC50) value was determined. IC50 represents the concentration of a compound that is required for 50% inhibition in vitro and is expressed in micromolar units.
Background: Tetrazolium assays rely on reduction of a dye to a coloured formazan, in cell work by metabolically active cells.

Data set [3] deals with MDA-MB-453 human metastatic epithelial breast carcinoma cells. Put plainly: MTT assay, in vitro cytostatic effect. Particulars: Homo sapiens, MDA-MB-453, 24 h treatment at 3.125–25 µM, then cultured up to 72 h, mean ± SD, n = 2 independent experiments with four parallels. Type of data set: cell-based. The procedure:
as §1, §2

For data set [4], the system named is MDA-MB-231 human breast adenocarcinoma cells. Put plainly: MTT assay, in vitro cytostatic effect. The class given is cell-based. Conditions: Homo sapiens, MDA-MB-231, 24 h treatment at 3.125–25 µM, then cultured up to 72 h, mean ± SD, n = 2 independent experiments with four parallels. The procedure: as §1, §2
Data set [5] deals with MRC-5 human fibroblasts. Put plainly: Toxicity on non-cancerous cells (dose-response curves). The class given is cell-based. Conditions: Figure S15. An excerpt:
The lack of toxicity of the conjugates on healthy cells was checked on MRC-5 human fibroblasts, proving that they are non-toxic on non-cancerous cells (see Supplementary Materials, Figure S15).
Figure S15. Dose-response curves of the PDCs and Dau on MRC-5 human fibroblast cell line. Only […]
Figure S16. Flow cytometry measurements for the uptake of all the PDCs on MDA-MB-231 (A), MDA-MB-453 (B) and PC-3 (C) human cancer cell lines. The percentage of cells containing the Dau-conjugates was evaluated on four concentrations (%, mean ± SD, n= 2). Given that above 12.5 µM the internalisation may not only be receptor-mediated, this concentration was considered to com-pare the uptake of the bioconjugates. […]

Data set [6] has as its system mice. Conditions: mouse experimental model; cited from earlier work. The procedure:
Before testing the effect of our newly developed PDCs on tumour growth in vivo, we performed a chronic toxicity study to determine the ideal dosage of the compounds. Administration of daunorubicin is shown to cause severe cardiotoxic side effects, therefore, its maximum tolerated dose is 1 mg/kg in the case of our experimental model. However, when conjugated to targeting moieties, its side effects can be reduced; moreover, its tumour inhibition capabilities can be increased.

For orientation: IC50 means the concentration that inhibits the measured activity by half. Regarding `COc1cccc2c1C(=O)c1c(O)c3c(c(O)c1C2=O)C[C@@](O)(C(C)=O)C[C@@H]3O[C@H]1C[C@H](N)[C@H](O)[C@H](C)O1` [Dau, daunorubicin, reference compound], the “Day at which fitness of mice decreased to a critical state” value in data set [1] was 26 days. In data set [1], the “Effect on tumour growth” value is recorded as “did not significantly reduce tumour growth”. Besides, the IC50 in data set [2] stood at 0.75 ± 0.01 µM; in data set [3], 0.81 ± 0.07 µM; in data set [4] it was 0.9 ± 0.06 µM. For the same compound, the “Toxicity on MRC-5 human fibroblasts” value in data set [5] is on record as “reveals toxicity”. For the same compound, the Maximum tolerated dose in data set [6] is recorded as 1 mg/kg.

(Values after article PMC9967152 (International Journal of Molecular Sciences, 2023).)
